Laboratory results: patent publication US20010006697A1, “Composition and method for producing low cholesterol eggs” (priority 1997, published 2001)
Values joined by “and” are separate entries in the source; they are usually repeats but may differ in a detail not shown here. Equal values may be shown once. Read-outs that look alike come from different tables or passages of the source. Marks after values point to notes of the source that are not given here.

Tests used:
[1] = tested on: laying hens; assay: Yolk cholesterol contents of eggs from statin-treated laying hens; format: in vivo, White Leghorn hens
Method: Agric. […] Hens were treated as described in Example 1. […] The eggs were hard-cooked, and the yolks were separated, weighed, and crumbled. […] Agric. […] Egg homogenate filtrates were analyzed for cholesterol as described in Rudel, L. L. and Morris, M. D., J. Lipid Res. 14:364-366 (1973).

[2] = tested on: microsomal triglyceride transport protein (MTP) large subunit mRNA; details: normalized by 18S rRNA; day 35
[3] = tested on: plasma VLDL particles; details: day 35
[4] = tested on: laying hens; details: 0.03% or 0.06% of diet; day 35
[5] = tested on: plasma VLDL particles; details: day 35; remark: listed apart in the source
[6] = tested on: laying hens; details: 0.03% or 0.06% of diet; day 35; remark: listed apart in the source
[7] = tested on: laying hens; assay: Liver cholesterol content; details: day 35
[8] = Liver weight of statin-treated laying hens; details: day 35
[9] = tested on: apolipoprotein B (apoB) mRNA; assay: Northern blot of liver mRNA: apoB; format: in vivo, White Leghorn hens; details: normalized by 18S rRNA; day 35
Source text: Endocrinol. […] Endocrinol.

[10] = tested on: laying hens; assay: Egg production, egg weights and yolk weights of statin-treated laying hens; format: in vivo, White Leghorn hens
Method: Hens were treated as described in Example 1. Egg yolk was weighed as outlined in Example 2.

[11] = 0.06% of diet, week 5 (maximal reduction for simvastatin, lovastatin)
[12] = 0.03% of diet, Overall (weeks 1-5)
[13] = 0.06% of diet, Overall (weeks 1-5)

Compound: CC[C@H](C)C(=O)O[C@H]1C[C@@H](C)C=C2C=C[C@H](C)[C@H](CC[C@@H]3C[C@@H](O)CC(=O)O3)[C@H]21 [Lovastatin]
- Yolk cholesterol content, mg cholesterol/g yolk ([1]; 0.03% of diet, Week 0): 11.0 ± 0.2^a mg cholesterol/g yolk
- Yolk cholesterol content, mg cholesterol/yolk ([1]; 0.03% of diet, Week 0): 195.7 ± 6.8^a mg cholesterol/yolk
- Yolk cholesterol content, mg cholesterol/g yolk ([1]; 0.03% of diet, Week 1): 10.7 ± 0.2^b mg cholesterol/g yolk
- Yolk cholesterol content, mg cholesterol/yolk ([1]; 0.03% of diet, Week 1): 192.2 ± 6.5^a mg cholesterol/yolk
- Yolk cholesterol content, mg cholesterol/g yolk ([1]; 0.03% of diet, Week 2): 11.1 ± 0.2^a,b mg cholesterol/g yolk
- Yolk cholesterol content, mg cholesterol/yolk ([1]; 0.03% of diet, Week 2): 193.8 ± 6.6^a mg cholesterol/yolk
- Yolk cholesterol content, mg cholesterol/g yolk ([1]; 0.03% of diet, Week 3): 10.8 ± 0.2^b mg cholesterol/g yolk
- Yolk cholesterol content, mg cholesterol/yolk ([1]; 0.03% of diet, Week 3): 192.3 ± 5.1^a mg cholesterol/yolk
- Yolk cholesterol content, mg cholesterol/g yolk ([1]; 0.03% of diet, Week 4): 10.9 ± 0.2^a,b mg cholesterol/g yolk
- Yolk cholesterol content, mg cholesterol/yolk ([1]; 0.03% of diet, Week 4): 193.9 ± 4.2^a mg cholesterol/yolk
- Yolk cholesterol content, mg cholesterol/g yolk ([1]; 0.03% of diet, Week 5): 10.8 ± 0.1^b mg cholesterol/g yolk
- Yolk cholesterol content, mg cholesterol/yolk ([1]; 0.03% of diet, Week 5): 193.6 ± 4.0^a,b mg cholesterol/yolk
- Yolk cholesterol content, mg cholesterol/g yolk ([1]; 0.06% of diet, Week 0): 10.9 ± 0.1^a mg cholesterol/g yolk
- Yolk cholesterol content, mg cholesterol/yolk ([1]; 0.06% of diet, Week 0): 197.8 ± 4.3^a mg cholesterol/yolk
- Yolk cholesterol content, mg cholesterol/g yolk ([1]; 0.06% of diet, Week 1): 10.7 ± 0.1^b mg cholesterol/g yolk
- Yolk cholesterol content, mg cholesterol/yolk ([1]; 0.06% of diet, Week 1): 185.5 ± 8.4^a,b mg cholesterol/yolk
- Yolk cholesterol content, mg cholesterol/g yolk ([1]; 0.06% of diet, Week 2): 10.8 ± 0.1^b,c mg cholesterol/g yolk
- Yolk cholesterol content, mg cholesterol/g yolk ([1]; 0.06% of diet, Week 3): 10.5 ± 0.1^b,c mg cholesterol/g yolk
- Yolk cholesterol content, mg cholesterol/yolk ([1]; 0.06% of diet, Week 3): 184.6 ± 5.1^a,b mg cholesterol/yolk
- Yolk cholesterol content, mg cholesterol/g yolk ([1]; 0.06% of diet, Week 4): 10.9 ± 0.2^a,b mg cholesterol/g yolk
- Yolk cholesterol content, mg cholesterol/yolk ([1]; 0.06% of diet, Week 4): 187.1 ± 7.2^a,b mg cholesterol/yolk
- Yolk cholesterol content, mg cholesterol/g yolk ([1]; 0.06% of diet, Week 5): 10.8 mg cholesterol/g yolk and 10.8 ± 0.1^b mg cholesterol/g yolk
- Yolk cholesterol content, mg cholesterol/yolk ([1]; 0.06% of diet, Week 5): 186.9 mg cholesterol/yolk and 186.9 ± 4.3^a,b mg cholesterol/yolk
- yolk cholesterol reduction from control on a per yolk (egg) basis [1, 11]: 7%
- yolk cholesterol reduction from control per g of yolk (mg/g basis) [1, 11]: 7%
- hepatic MTP large subunit mRNA, linear contrasts (P≦0.05) [2]: lovastatin>atorvastatin
- Plasma VLDL composition: EC (esterified cholesterol) ([3]; 0.03% of diet): 0.06 ± 0.01^a,b %
- Plasma VLDL composition: PC (phosphatidylcholine) ([3]; 0.03% of diet): 11.99 ± 0.18^b %
- Plasma VLDL composition: PE (phosphatidylethanolamine) ([3]; 0.03% of diet): 3.76 ± 0.33^a %
- Plasma VLDL composition: Protein ([3]; 0.03% of diet): 17.37 ± 0.70^a %
- Plasma VLDL composition: SM (sphingomyelin) ([3]; 0.03% of diet): 1.08 ± 0.31^a %
- Plasma VLDL composition: TG (triglyceride) ([3]; 0.03% of diet): 62.78 ± 1.01^a %
- Plasma VLDL composition: UC (unesterified cholesterol) ([3]; 0.03% of diet): 2.94 ± 0.11^a %
- Plasma VLDL composition: EC (esterified cholesterol) ([3]; 0.06% of diet): 0.08 ± 0.02^a,b %
- Plasma VLDL composition: PC (phosphatidylcholine) ([3]; 0.06% of diet): 12.07 ± 0.82^b %
- Plasma VLDL composition: PE (phosphatidylethanolamine) ([3]; 0.06% of diet): 3.46 ± 0.93^a %
- Plasma VLDL composition: Protein ([3]; 0.06% of diet): 19.96 ± 1.32^a %
- Plasma VLDL composition: SM (sphingomyelin) ([3]; 0.06% of diet): 0.66 ± 0.23^a %
- Plasma VLDL composition: TG (triglyceride) ([3]; 0.06% of diet): 60.74 ± 1.22^a %
- Plasma VLDL composition: UC (unesterified cholesterol) ([3]; 0.06% of diet): 3.03 ± 0.34^a %
- effect on plasma total cholesterol (plasma lipid variables) [4]: did not significantly affect
- Plasma VLDL particle Diameter nm ([5]; 0.03% of diet): 35.5 ± 0.1^a,b nm
- Plasma VLDL particle Diameter nm ([5]; 0.06% of diet): 34.8 ± 0.1^a,b nm
- effect on plasma triglycerides (plasma lipid variables) [6]: did not significantly affect
- Liver Cholesterol mg/g liver ([7]; 0.03% of diet): 3.0 ± 0.05^b,c mg/g liver
- Liver Cholesterol mg/liver ([7]; 0.03% of diet): 95.7 ± 3.3^a mg/liver
- Liver Cholesterol mg/g liver ([7]; 0.06% of diet): 3.1 ± 0.07^b mg/g liver
- Liver Cholesterol mg/liver ([7]; 0.06% of diet): 90.2 ± 3.6^a mg/liver
- Liver Weight g ([8]; 0.03% of diet): 31.4 ± 1.4^b g
- Liver Weight g/100 g BW ([8]; 0.03% of diet): 1.81 ± 0.09^a,b g/100 g BW
- Liver Weight g ([8]; 0.06% of diet): 28.8 ± 0.9^b,c g
- Liver Weight g/100 g BW ([8]; 0.06% of diet): 1.76 ± 0.05^b g/100 g BW
- hepatic apoB mRNA, linear contrasts (P≦0.05) [9]: control>lovastatin
- Egg weight, g [10, 12]: 65.0 ± 1.4^a (155) g
- Hen-day egg production, % [10, 12]: 88.6 ± 2.4^a (155) %
- Yolk weight, g [10, 12]: 17.7 ± 0.2^a (25) g
- Egg weight, g ([10]; 0.03% of diet, Week 1): 64.9 ± 0.7^a g
- Hen-day egg production, % ([10]; 0.03% of diet, Week 1): 91.4 ± 1.2^a %
- Yolk weight, g ([10]; 0.03% of diet, Week 1): 17.9 ± 0.7^a g
- Egg weight, g ([10]; 0.03% of diet, Week 2): 64.3 ± 0.8^a,b g
- Hen-day egg production, % ([10]; 0.03% of diet, Week 2): 88.6 ± 1.0^a %
- Yolk weight, g ([10]; 0.03% of diet, Week 2): 17.4 ± 0.8^a g
- Egg weight, g ([10]; 0.03% of diet, Week 3): 65.1 ± 0.7^a g
- Hen-day egg production, % ([10]; 0.03% of diet, Week 3): 85.7 ± 1.0^a %
- Yolk weight, g ([10]; 0.03% of diet, Week 3): 17.8 ± 0.5^a g
- Egg weight, g ([10]; 0.03% of diet, Week 4): 65.8 ± 0.6^a g
- Hen-day egg production, % ([10]; 0.03% of diet, Week 4): 88.6 ± 1.8^a %
- Yolk weight, g ([10]; 0.03% of diet, Week 4): 17.8 ± 0.4^a g
- Egg weight, g ([10]; 0.03% of diet, Week 5): 64.7 ± 0.7^a g
- Hen-day egg production, % ([10]; 0.03% of diet, Week 5): 88.6 ± 1.0^a %
- Yolk weight, g ([10]; 0.03% of diet, Week 5): 17.8 ± 0.5^a g
- effect on production variables (egg production, egg weight, yolk weight) ([10]; 0.03% or 0.06% of diet, P>0.05): did not affect
- Egg weight, g [10, 13]: 63.8 ± 1.8^a (155) g
- Hen-day egg production, % [10, 13]: 88.6 ± 2.9^a (155) %
- Yolk weight, g [10, 13]: 17.4 ± 0.3^a (25) g
- Egg weight, g ([10]; 0.06% of diet, Week 1): 62.6 ± 1.9^a g
- Hen-day egg production, % ([10]; 0.06% of diet, Week 1): 88.6 ± 1.0^a,b %
- Yolk weight, g ([10]; 0.06% of diet, Week 1): 17.4 ± 1.0^a g
- Egg weight, g ([10]; 0.06% of diet, Week 2): 64.0 ± 0.7^a,b g
- Hen-day egg production, % ([10]; 0.06% of diet, Week 2): 85.7 ± 1.5^a,b %
- Yolk weight, g ([10]; 0.06% of diet, Week 2): 17.3 ± 0.7^a g
- Egg weight, g ([10]; 0.06% of diet, Week 3): 65.3 ± 1.1^a g
- Hen-day egg production, % ([10]; 0.06% of diet, Week 3): 88.6 ± 1.0^a %
- Yolk weight, g ([10]; 0.06% of diet, Week 3): 17.7 ± 0.6^a g
- Egg weight, g ([10]; 0.06% of diet, Week 4): 63.3 ± 0.8^b,c g
- Hen-day egg production, % ([10]; 0.06% of diet, Week 4): 88.6 ± 1.8^a %
- Yolk weight, g ([10]; 0.06% of diet, Week 4): 17.2 ± 0.9^a,b g
- Egg weight, g ([10]; 0.06% of diet, Week 5): 62.9 ± 0.8^a,b g
- Hen-day egg production, % ([10]; 0.06% of diet, Week 5): 91.4 ± 1.2^a %
- Yolk weight, g ([10]; 0.06% of diet, Week 5): 17.3 ± 0.7^a g
